PubChem BioAssay (NCI)
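Following 48 hours of exposure in 96-well plates, responses at five concentrations were used to interpolate endpoints linearly. TGI denotes the concentration required for complete inhibition of growth.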

How the values were obtained:
Test in all cases: NCI anticancer screen, dose series, 48 h
OVCAR-4 ovarian = system: OVCAR-4 ovarian
A549 NSCLC = system: A549 NSCLC
OVCAR-5 ovarian = system: OVCAR-5 ovarian
MALME-3M melanoma = system: MALME-3M melanoma
HOP-92 NSCLC = system: HOP-92 NSCLC
OVCAR-3 ovarian = system: OVCAR-3 ovarian
HOP-62 NSCLC = system: HOP-62 NSCLC
786-0 renal = system: 786-0 renal
CCRF-CEM leukemia = system: CCRF-CEM leukemia
RXF 393 renal = system: RXF 393 renal
SNB-75 CNS = system: SNB-75 CNS
KM12 colon = system: KM12 colon
SW-620 colon = system: SW-620 colon
SF-539 CNS = system: SF-539 CNS
U251 CNS = system: U251 CNS
SF-268 CNS = system: SF-268 CNS
SN12C renal = system: SN12C renal
T-47D breast = system: T-47D breast
M14 melanoma = system: M14 melanoma
UO-31 renal = system: UO-31 renal
HCT-116 colon = system: HCT-116 colon
MDA-MB-231 breast = system: MDA-MB-231 breast
PC-3 prostate = system: PC-3 prostate
K-562 leukemia = system: K-562 leukemia
SF-295 CNS = system: SF-295 CNS
OVCAR-8 ovarian = system: OVCAR-8 ovarian
HCT-15 colon = system: HCT-15 colon
BT-549 breast = system: BT-549 breast
RPMI-8226 leukemia = system: RPMI-8226 leukemia
HCC-2998 colon = system: HCC-2998 colon
SK-MEL-5 melanoma = system: SK-MEL-5 melanoma
MCF7 breast = system: MCF7 breast
TK-10 renal = system: TK-10 renal
A498 renal = system: A498 renal
IGROV1 ovarian = system: IGROV1 ovarian
UACC-257 melanoma = system: UACC-257 melanoma
LOX IMVI melanoma = system: LOX IMVI melanoma
SNB-19 CNS = system: SNB-19 CNS
MDA-MB-435 = system: MDA-MB-435
UACC-62 melanoma = system: UACC-62 melanoma
SK-MEL-2 melanoma = system: SK-MEL-2 melanoma
NCI/ADR-RES ovarian = system: NCI/ADR-RES ovarian
NCI-H23 lung = system: NCI-H23 lung
MOLT-4 leukemia = system: MOLT-4 leukemia
HL-60(TB) leukemia = system: HL-60(TB) leukemia
ACHN renal = system: ACHN renal
DU-145 prostate = system: DU-145 prostate
NCI-H460 lung = system: NCI-H460 lung
EKVX NSCLC = system: EKVX NSCLC
CAKI-1 renal = system: CAKI-1 renal
COLO 205 colon = system: COLO 205 colon
MDA-N = system: MDA-N
HS 578T breast = system: HS 578T breast
NCI-H226 lung = system: NCI-H226 lung
SK-OV-3 ovarian = system: SK-OV-3 ovarian
NCI-H522 lung = system: NCI-H522 lung
SR leukemia = system: SR leukemia
SK-MEL-28 melanoma = system: SK-MEL-28 melanoma
HT29 colon = system: HT29 colon

SMILES: CC1=NN(C(=O)CC(=O)Nc2ccc(C)cc2)C(=O)C1N=Nc1ccc(S(=O)(=O)c2ccc(N=NC3C(=O)N(C(=O)CC(=O)Nc4ccc(C)cc4)N=C3C)cc2)cc1 (stereo unspecified)
- TGI (OVCAR-4 ovarian): > 100 µM
- TGI (A549 NSCLC): > 100 µM
- TGI (OVCAR-5 ovarian): > 100 µM
- TGI (MALME-3M melanoma): > 100 µM
- TGI (HOP-92 NSCLC): > 100 µM
- TGI (OVCAR-3 ovarian): > 100 µM
- TGI (HOP-62 NSCLC): > 100 µM
- TGI (786-0 renal): > 100 µM
- TGI (CCRF-CEM leukemia): > 100 µM
- TGI (RXF 393 renal): > 100 µM
- TGI (SNB-75 CNS): > 100 µM
- TGI (KM12 colon): > 100 µM
- TGI (SW-620 colon): > 100 µM
- TGI (SF-539 CNS): > 100 µM
- TGI (U251 CNS): > 100 µM
- TGI (SF-268 CNS): > 100 µM
- TGI (SN12C renal): > 100 µM
- TGI (T-47D breast): > 100 µM
- TGI (M14 melanoma): > 100 µM
- TGI (UO-31 renal): > 100 µM
- TGI (HCT-116 colon): > 100 µM
- TGI (MDA-MB-231 breast): > 100 µM
- TGI (PC-3 prostate): > 100 µM
- TGI (K-562 leukemia): > 100 µM
- TGI (SF-295 CNS): > 100 µM
- TGI (OVCAR-8 ovarian): > 100 µM
- TGI (HCT-15 colon): > 100 µM
- TGI (BT-549 breast): > 100 µM
- TGI (RPMI-8226 leukemia): > 100 µM
- TGI (HCC-2998 colon): > 100 µM
- TGI (SK-MEL-5 melanoma): > 100 µM
- TGI (MCF7 breast): > 100 µM
- TGI (TK-10 renal): > 100 µM
- TGI (A498 renal): > 100 µM
- TGI (IGROV1 ovarian): > 100 µM
- TGI (UACC-257 melanoma): > 100 µM
- TGI (LOX IMVI melanoma): > 100 µM
- TGI (SNB-19 CNS): > 100 µM
- TGI (MDA-MB-435): > 100 µM
- TGI (UACC-62 melanoma): > 100 µM
- TGI (SK-MEL-2 melanoma): > 100 µM
- TGI (NCI/ADR-RES ovarian): > 100 µM
- TGI (NCI-H23 lung): > 100 µM
- TGI (MOLT-4 leukemia): > 100 µM
- TGI (HL-60(TB) leukemia): > 100 µM
- TGI (ACHN renal): > 100 µM
- TGI (DU-145 prostate): > 100 µM
- TGI (NCI-H460 lung): > 100 µM
- TGI (EKVX NSCLC): > 100 µM
- TGI (CAKI-1 renal): > 100 µM
- TGI (COLO 205 colon): > 100 µM
- TGI (MDA-N): > 100 µM
- TGI (HS 578T breast): > 100 µM
- TGI (NCI-H226 lung): > 100 µM
- TGI (SK-OV-3 ovarian): > 100 µM
- TGI (NCI-H522 lung): > 100 µM
- TGI (SR leukemia): > 100 µM
- TGI (SK-MEL-28 melanoma): > 100 µM

SMILES: CC1(c2cccc(Cl)c2)CC(c2cccc(Cl)c2)=C(C#N)C(=C(C#N)C#N)N1 (stereo unspecified)
- TGI (OVCAR-4 ovarian): 32.6 µM
- TGI (A549 NSCLC): 42.1 µM
- TGI (OVCAR-5 ovarian): 46.4 µM
- TGI (MALME-3M melanoma): 35.2 µM
- TGI (HOP-92 NSCLC): 21.4 µM
- TGI (OVCAR-3 ovarian): 23 µM
- TGI (HOP-62 NSCLC): 41.3 µM
- TGI (786-0 renal): 30.1 µM
- TGI (CCRF-CEM leukemia): > 100 µM
- TGI (RXF 393 renal): 29.3 µM
- TGI (SNB-75 CNS): 34.3 µM
- TGI (KM12 colon): 39 µM
- TGI (SW-620 colon): > 100 µM
- TGI (SF-539 CNS): 37.2 µM
- TGI (U251 CNS): 37.8 µM
- TGI (SF-268 CNS): 20.1 µM
- TGI (SN12C renal): 36.4 µM
- TGI (T-47D breast): 38 µM
- TGI (M14 melanoma): 31.9 µM
- TGI (UO-31 renal): 29.3 µM
- TGI (HCT-116 colon): 34.1 µM
- TGI (MDA-MB-231 breast): 48.6 µM
- TGI (PC-3 prostate): 34.3 µM
- TGI (K-562 leukemia): > 100 µM
- TGI (SF-295 CNS): 33.4 µM
- TGI (OVCAR-8 ovarian): 42.6 µM
- TGI (HCT-15 colon): 33.8 µM
- TGI (BT-549 breast): 51.2 µM
- TGI (RPMI-8226 leukemia): 59.4 µM
- TGI (HCC-2998 colon): 30.3 µM
- TGI (HT29 colon): 91.2 µM
- TGI (SK-MEL-5 melanoma): 28.6 µM
- TGI (MCF7 breast): 51.6 µM
- TGI (TK-10 renal): 31.8 µM
- TGI (A498 renal): 39.3 µM
- TGI (IGROV1 ovarian): 31.8 µM
- TGI (UACC-257 melanoma): 42 µM
- TGI (LOX IMVI melanoma): 39 µM
- TGI (SNB-19 CNS): 39.9 µM
- TGI (MDA-MB-435): 35.3 µM
- TGI (UACC-62 melanoma): 34.6 µM
- TGI (SK-MEL-2 melanoma): 64.8 µM
- TGI (NCI/ADR-RES ovarian): 48.1 µM
- TGI (NCI-H23 lung): 39 µM
- TGI (MOLT-4 leukemia): 57.3 µM
- TGI (HL-60(TB) leukemia): 46.2 µM
- TGI (ACHN renal): 31.9 µM
- TGI (DU-145 prostate): 29.3 µM
- TGI (NCI-H460 lung): 94.3 µM
- TGI (EKVX NSCLC): 46.5 µM
- TGI (CAKI-1 renal): 32.3 µM
- TGI (COLO 205 colon): 29.9 µM
- TGI (MDA-N): 39.7 µM
- TGI (HS 578T breast): 34.1 µM
- TGI (NCI-H226 lung): 60.9 µM
- TGI (SK-OV-3 ovarian): 32.8 µM
- TGI (SR leukemia): 65.3 µM
- TGI (SK-MEL-28 melanoma): 74 µM
